According to patent US11478451B1, “Macrocyclic chlorine substituted indole derivatives” (Bayer Aktiengesellschaft, priority 2017, dated 2022):
Where a name gives a salt, the structure may show the parent alone. Read-outs that look alike come from different tables or passages of the source. Each block holds one compound with its values, some of them ahead of it.

What was measured:
SUDHL5 cells [1] = test: Induction of cytotoxicity (CellTiter-Glo, 5 h), SUDHL5; conditions: SUDHL5, 5 h
Description: Therefore, cytotoxicity assays were run in parallel in SUDHL5 and SUDHL10 cells.
The different cell lines were plated in culture medium (RPMI 1640 [GIBCO #22400-089] supplemented with 10% Fetal Bovine Serum) at a density of 3,300 cells in 30 μL/well in a sterile, solid black, flat bottom, polystyrene, TC-treated 384-well microplate (Corning #3571) using Multidrop Combi Reagent Dispenser. As a control, medium without cells was also added to the plate. Cells were incubated in a humidified incubator at 37° C. overnight. […] Rim wells were excluded. The cells were incubated for 5 h hours in a humidified incubator at 37° C. After this incubation, 30 μL of CellTiter-Glo® Luminescent Cell Viability reagent (Promega, G7573) was added to each well using the Multidrop Combi Reagent Dispenser, followed by 15 min incubation on a shaker at room temperature. Finally, luminescence was read at 0.1 ms, with a gain of 3000 using the PHERAstar FS microplate reader (BMG Labtech).

SUDHL5 cells [2] = test: Induction of caspase-3/7 activity (Caspase-Glo 3/7), SUDHL5; type: cell-based; conditions: EC50, median, SUDHL5, 3 h treatment
Description: (§1) Induction of Caspase-3/7 Activity Upon Treatment of Cells with Selected Compounds
(§2) The BH3-domain of MCL-1 sequesters pro-apoptotic proteins, thereby inhibiting apoptosis. In contrast, MCL-1 inhibitors are expected to antagonize this effect leading to an increase in apoptosis, which can be determined by measuring the activity of caspase-3/7.
(§3) The activity of caspase-3/7 was determined in DLBCL (Diffuse large B-cell lymphoma) cell lines (SUDHL5 and SUDHL10) upon treatment with different compounds, using the Caspase-Glo® 3/7 reagent from Promega (G8092).
(§4) Rim wells were excluded. The cells were incubated for 3 h hours in a humidified incubator at 37° C.
(§5) For the evaluation of the results, the background measured with “medium-only” was subtracted from all other values.

SUDHL10 cells [3] = test: Induction of cytotoxicity (CellTiter-Glo, 5 h), SUDHL10; conditions: read-out: Cytotox SUDHL10 [M] (median); IC50, median; SUDHL10, 5 h
SUDHL10 cells [4] = test: Induction of caspase-3/7 activity (Caspase-Glo 3/7), SUDHL10; type: cell-based; conditions: EC50, median; SUDHL10, 3 h treatment
Description: as §1, §2, §3, §4, §5

AMO-1 cells = test: Antiproliferation assay (CellTiter-Glo, 72 h), AMO-1; type: cell-based; conditions: IC50, median, AMO-1, 72 h, read-out: Antiproli AMO-1 [M] median
Description: Assessment of the Anti-Proliferative Effect of Compounds in Different Cell Lines
The impact of compounds on the proliferation of different cell lines was assessed using the CellTiter-Glo® Luminescent Cell Viability reagent from Promega (G7573).
In parallel, cells were plated in a reference (day 0) plate for time zero determination.
Rim wells were excluded. The cells were incubated for 72 h hours in a humidified incubator at 37° C. The day 0 plate was measured by adding 30 μL/well of CTG solution (CellTiter-Glo® Luminescent Cell Viability reagent, Promega G7573) to time zero wells in the reference plate followed by a 10 minutes incubation and luminescence reading at 0.1 ms. using the PHERAstar FS microplate reader (BMG Labtech).
After 72 h incubation, the treated plates were measured in the same way as the day 0 plate mentioned above.

[5] = Homo sapiens, SU-DHL-5, 5 h, read-out: Cytotox SUDHL5 [M] (median), IC50, median
[6] = read-out: Cytotox SUDHL5 [M] (median), IC50, median

SMILES: CCc1nn(CCN2CCOCC2)c2c1-c1c(Cl)ccc3c(CCCOc4cccc5ccccc45)c(C(=O)O)n(c13)C/C=C\CN(C)C2 (single isomer, unassigned; enantiomer 1) [Example 43, (11Z)-4-chloro-3-ethyl-14-methyl-1-[2-(morpholin-4-yl)ethyl]-7-{3-[(naphthalen-1-yl)oxy]propyl}-10,13,14,15-tetrahydro-1H-pyrazolo[3′,4′:8,9][1,6]diazacycloundecino[10,11,1-hi]indole-8-carboxylic acid-ammonia salt (Enantiomer 1)]
- IC50 (SUDHL5 cells [1]; [5]): 6e-07 M

- EC50 (SUDHL5 cells [2]; Homo sapiens, SU-DHL-5, 3 h): 5.4 µM
SMILES: CCc1c2c(nn1C)COCCCCn1c(C(=O)O)c(CCCOc3cccc4cc(F)ccc34)c3ccc(Cl)c-2c31 (single isomer, unassigned; enantiomer 2) [Example 38, (−)-4-chloro-3-ethyl-7-{3-[(6-fluoronaphthalen-1-yl)oxy]propyl}-2-methyl-2,10,11,12,13,15-hexahydropyrazolo[4′,3′:9,10][1,6]oxazacycloundecino[8,7,6-hi]indole-8-carboxylic acid-N-ethylethanamine salt (Enantiomer 2)]

- EC50 (SUDHL10 cells [4]): 7.8 µM
SMILES: CCc1c2c(nn1C)COCC(O)CCn1c(C(=O)O)c(CCCOc3cccc4cc(F)ccc34)c3ccc(Cl)c-2c31 (stereo not shown) [Example 102, 4-chloro-3-ethyl-7-{3-[(6-fluoronaphthalen-1-yl)oxy]propyl}-12-hydroxy-2-methyl-2,10,11,12,13,15-hexahydropyrazolo[4′,3′:9,10][1,6]oxazacycloundecino[8,7,6-hi]indole-8-carboxylic acid-N-ethylethanamine salt]
- IC50 (SUDHL5 cells [1]; [6]): 8.4e-06 M
- IC50 (SUDHL10 cells [3]): 8.2e-06 M

- EC50 (SUDHL10 cells [4]): 8 µM
- EC50 (SUDHL5 cells [2]): 3.2 µM
SMILES: Cc1c2c(nn1C)COCC(F)(F)CCn1c(C(=O)O)c(CCCOc3cccc4ccccc34)c3ccc(Cl)c-2c31 (single isomer, unassigned; enantiomer 2) [Example 57, 4-chloro-12,12-difluoro-2,3-dimethyl-7-{3-[(naphthalen-1-yl)oxy]propyl}-2,10,11,12,13,15-hexahydropyrazolo[4′,3′:9,10][1,6]oxazacycloundecino[8,7,6-hi]indole-8-carboxylic acid-N-ethylethanamine salt—Enantiomer 2]
- IC50 (AMO-1 cells): 7.6e-06 M
- IC50 (SUDHL5 cells [1]; [6]): 4.9e-06 M

- EC50 (SUDHL5 cells [2]; Homo sapiens, SU-DHL-5, 3 h): 9.3 µM
SMILES: CCc1c2c(nn1C)CN(CCOC)CCCCn1c(C(=O)O)c(CCCOc3cccc4cc(F)ccc34)c3ccc(Cl)c-2c31 (single isomer, unassigned; enantiomer 1) [Example 132, 4-chloro-3-ethyl-7-{3-[(6-fluoronaphthalen-1-yl)oxy]propyl}-14-(2-methoxyethyl)-2-methyl-10,11,12,13,14,15-hexahydro-2H-pyrazolo[3′,4′:8,9][1,6]diazacycloundecino[10,11,1-hi]indole-8-carboxylic acid (Enantiomer 1)]
- IC50 (SUDHL5 cells [1]; [5]): 8.2e-06 M

SMILES: Cc1nn(C)c2c1-c1c(Cl)ccc3c(CCCOc4cccc5ccccc45)c(C(=O)O)n(c13)CCCCOC2 (racemic) [Example 2, rac-4-chloro-1,3-dimethyl-7-[3-(naphthalen-1-yloxy)propyl]-1,10,11,12,13,15-hexahydropyrazolo[4′,3′:9,10][1,6]oxazacycloundecino[8,7,6-hi]indole-8-carboxylic acid]
- IC50 (AMO-1 cells; Homo sapiens, AMO1, 72 h): 4.9e-06 M

SMILES: CCc1c2c(nn1C)COCCCCn1c(C(=O)O)c(CCCOc3cccc4cc(F)ccc34)c3ccc(Cl)c-2c31 (racemic) [Example 36, (rac)-4-chloro-3-ethyl-7-{3-[(6-fluoronaphthalen-1-yl)oxy]propyl}-2-methyl-2,10,11,12,13,15-hexahydropyrazolo[4′,3′:9,10][1,6]oxazacycloundecino[8,7,6-hi]indole-8-carboxylic acid]
- IC50 (AMO-1 cells; Homo sapiens, AMO1, 72 h): 2.9e-07 M

- EC50 (SUDHL5 cells [2]): 9 µM
SMILES: Cc1c2c(nn1C)COCC1CCC1Cn1c(C(=O)O)c(CCCOc3cccc4ccccc34)c3ccc(Cl)c-2c31 (single isomer, unassigned; stereoisomer 1) [Example 63]

SMILES: CCc1c2c(nn1C)CN(C)CCCCn1c(C(=O)O)c(CCCOc3cccc4ccccc34)c3ccc(Cl)c-2c31 (racemic) [Example 22, (rac)-4-chloro-3-ethyl-2,14-dimethyl-7-[3-(naphthalen-1-yloxy)propyl]-10,11,12,13,14,15-hexa-hydro-2H-pyrazolo[3′,4′:8,9][1,6]diazacycloundecino[10,11,1-hi]indole-8-carboxylic acid]
- IC50 (AMO-1 cells; Homo sapiens, AMO1, 72 h): 6.6e-07 M

SMILES: CCc1c2c(nn1C)CN(C)CCCCn1c(C(=O)O)c(CCCOc3cccc4cc(F)ccc34)c3ccc(Cl)c-2c31 (racemic) [Example 5, (rac)-4-chloro-3-ethyl-7-{3-[(6-fluoronaphthalen-1-yl)oxy]propyl}-2,14-dimethyl-10,11,12,13,14,15-hexahydro-2H-pyrazolo[3′,4′:8,9][1,6]diazacycloundecino[10,11,1-hi]indole-8-carboxylic acid]
- IC50 (AMO-1 cells; Homo sapiens, AMO1, 72 h): 6.1e-07 M

- EC50 (SUDHL5 cells [2]; Homo sapiens, SU-DHL-5, 3 h): 4.5 µM
SMILES: CCc1c2c(nn1C)CN(C)CCCCn1c(C(=O)O)c(CCCOc3cccc4ccccc34)c3ccc(Cl)c-2c31 (single isomer, unassigned; enantiomer 2) [Example 24, 4-chloro-3-ethyl-2,14-dimethyl-7-[3-(naphthalen-1-yloxy)propyl]-10,11,12,13,14,15-hexahydro-2H-pyrazolo[3′,4′:8,9][1,6]diazacycloundecino[10,11,1-hi]indole-8-carboxylic acid (Enantiomer 2)]

- EC50 (SUDHL5 cells [2]; Homo sapiens, SU-DHL-5, 3 h): 0.8 µM
SMILES: CCc1c2c(nn1C)CCCCCCn1c(C(=O)O)c(CCCOc3cccc4ccccc34)c3ccc(Cl)c-2c31 (single isomer, unassigned; enantiomer 1) [Example 52, (+)-4-chloro-3-ethyl-2-methyl-7-{3-[(naphthalen-1-yl)oxy]propyl}-10,11,12,13,14,15-hexahydro-2H-pyrazolo[4′,3′:4,5]azacycloundecino[3,2,1-hi]indole-8-carboxylic acid-N-ethylethanamine salt—Enantiomer 1]
- IC50 (AMO-1 cells; Homo sapiens, AMO1, 72 h): 2.2e-06 M
- IC50 (SUDHL10 cells [3]): 2e-06 M

SMILES: Cc1c2c(nn1C)COCCCCn1c(C(=O)O)c(CCCOc3cccc4cc(F)ccc34)c3ccc(Cl)c-2c31 (racemic) [Example 14, (rac)-4-chloro-7-{3-[(6-fluoronaphthalen-1-yl)oxy]propyl}-2,3-dimethyl-2,10,11,12,13,15-hexahydropyrazolo[4′,3′:9,10][1,6]oxazacycloundecino[8,7,6-hi]indole-8-carboxylic acid]
- IC50 (AMO-1 cells; Homo sapiens, AMO1, 72 h): 7.4e-07 M

SMILES: CCc1nn(CCN2CCOCC2)c2c1-c1c(Cl)ccc3c(CCCOc4cccc5ccccc45)c(C(=O)O)n(c13)CCCCN(C)C2 (single isomer, unassigned; enantiomer 1) [Example 46, 4-chloro-3-ethyl-14-methyl-1-[2-(morpholin-4-yl)ethyl]-7-{3-[(naphthalen-1-yl)oxy]propyl}-10,11,12,13,14,15-hexahydro-1H-pyrazolo[3′,4′:8,9][1,6]diazacycloundecino[10,11,1-hi]indole-8-carboxylic acid (Enantiomer 1)]
- IC50 (AMO-1 cells; Homo sapiens, AMO1, 72 h): 5.9e-07 M
- IC50 (SUDHL5 cells [1]; [6]): 4e-07 M

- EC50 (SUDHL5 cells [2]; Homo sapiens, SU-DHL-5, 3 h): 8 µM
SMILES: CCc1c2c(nn1C)CN(C)CCCCn1c(C(=O)O)c(CCCOc3cccc4cc(F)ccc34)c3ccc(Cl)c-2c31 (single isomer, unassigned; enantiomer 2) [Example 7, 4-chloro-3-ethyl-7-{3-[(6-fluoronaphthalen-1-yl)oxy]propyl}-2,14-dimethyl-10,11,12,13,14,15-hexahydro-2H-pyrazolo[3′,4′:8,9][1,6]diazacycloundecino[10,11,1-hi]indole-8-carboxylic acid (Enantiomer 2)]
- IC50 (AMO-1 cells): 6.6e-06 M
- IC50 (SUDHL5 cells [1]; [6]): 6.1e-06 M
- IC50 (SUDHL10 cells [3]): 9.3e-06 M

- EC50 (SUDHL5 cells [2]; Homo sapiens, SU-DHL-5, 3 h): 3.5 µM
SMILES: CCc1c2c(nn1C)CCCCCCn1c(C(=O)O)c(CCCOc3cccc4cc(F)ccc34)c3ccc(Cl)c-2c31 (racemic) [Example 54, (rac)-4-chloro-3-ethyl-7-{3-[(6-fluoronaphthalen-1-yl)oxy]propyl}-2-methyl-10,11,12,13,14,15-hexahydro-2H-pyrazolo[4′,3′:4,5]azacycloundecino[3,2,1-hi]indole-8-carboxylic acid]

- EC50 (SUDHL5 cells [2]; Homo sapiens, SU-DHL-5, 3 h): 8.5 µM
SMILES: Cc1c2c(nn1C)COCC(F)(F)CCn1c(C(=O)O)c(CCCOc3cccc4cc(F)ccc34)c3ccc(Cl)c-2c31 (racemic) [Example 90, (rac)-4-Chloro-12,12-difluoro-7-{3-[(6-fluoronaphthalen-1-yl)oxy]propyl}-2,3-dimethyl-2,10,11,12,13,15-hexahydropyrazolo[4′,3′:9,10][1,6]oxazacycloundecino[8,7,6-hi]indole-8-carboxylic acid]
- IC50 (AMO-1 cells; Homo sapiens, AMO1, 72 h): 4.9e-06 M
- IC50 (SUDHL5 cells [1]; [5]): 9.9e-06 M
